Assay results reported in patent US8637038B2, “Methods for inhibiting allograft rejection” (Rigel Pharmaceuticals, Inc., priority 2011, dated 2014).
Where two headings read alike, the source gives them in different places.

Tests used:
Syk = assay: Anti-IgM Ramos phospho-Erk; format: cell-based; conditions: Homo sapiens, read-out: Anti-IgM Ramos phospho-Erk EC50
Procedure: (§1) The erythropoietin (EPO)-dependent survival of cultured human erythroid progenitor cells (CHEPs) was determined using CellTiter-Glo® Luminescent Cell Viability Assay (Promega). Human primary T cell activation was assessed by measuring IL-2 production by ELISA (R&D Systems, Minneapolis, Minn., USA) following plate-bound anti-CD3 and anti-CD28 stimulation (Anti-Human CD3; BD Biosciences; Anti-Human CD28; Immunotech; Prague, Czech Republic). The enzymatic activity of tryptase released by human cultured mast cells (CHMCs) upon stimulation with IgE was quantified by cleavage of the synthetic fluorescent peptide substrate Z-Ala-Lys-Arg-7-amino-4-methylcoumarin (MP Biomedicals, Solon, Ohio, USA) in tryptase buffer. B-cell receptor-dependent Erk phosphorylation was measured in Ramos cells by intracellular FACS (anti-pT202/pY204-ERK1/2-AlexaFluor488; BD Biosciences). Cell proliferation assays were performed using A549 epithelial cells and H1299 lung carcinoma cells using nuclear staining to measure cell numbers (4′6-diamidino-2-phenylindole, dihydrochloride (DAPI; Invitrogen, Darmstadt, Germany)).

A549 epithelial cells = assay: A549 proliferation; format: cell-based; conditions: Homo sapiens
Procedure: as §1

INSR = assay: Insulin HeLa phospho-Akt; format: cell-based; conditions: upstream kinase INSR
Procedure: Growth factor-dependent protein phosphorylation was detected in HeLa cells by staining permeabilized cells with phospho-specific antibodies and quantified by chemiluminescence (Luminator, Wallac Multilabel Counter; Perkin Elmer). Akt phosphorylation was measured following insulin stimulation and EGFR phosphorylation was measured following EGF stimulation (Phospho-AKT, Cell signaling technology, Danvers, Mass.; 1 μM Insulin, Millipore, Billerica, Mass.; Phospho-EGFR, tyr1173, clone 53A3, Cell Signaling Technology; 200 ng/ml recombinant human EGF, PeproTech, Hamburg, Germany). Human umbilical vein endothelial cells (HUVECs) were stimulated with VEGF and VEGFR2 phosphorylation was assessed by ELISA (100 ng/ml VEGF165, R&D Systems; Rabbit anti-phospho-VEGFR2 mAb, Cell Signaling Technology).

[1] = test system: Lew recipients of heterotopic BN heart transplants; assay: Five-day heart allograft study: CD3+/CD68+ immunohistochemistry; format: in vivo, rat; conditions: for CD68+ cell infiltration compared to Tac HD group / CD68+ cells compared to no medication group: HD groups, five days, p<0.001; for CD68+ and CD3+ cell infiltration compared to Tac LD group: LD groups (Compound I 15 mg/kg BID, Compound III 5 mg/kg BID), p<0.05
Excerpt: Male Brown Norway (BN) and Lewis (Lew) rats weighing 350 g were purchased from Harlan (Indianapolis, Ind.) and were housed under conventional conditions. All animals were fed standard rat chow and water ad libitum and received humane care in compliance with the Principles of Laboratory Animal Care formulated by the National Society for Medical Research and the Guide for the care and Use of Laboratory Animals published by the National Institutes of Health (National Institutes of Health publication No. 85-23, revised 1985). Allogeneic (BN-to-Lew) and syngeneic (Lew-to-Lew) heterotopic heart transplantations were performed as described previously (Ono et al., J. Thorac. Cardiovasc. Surg. 57:225-229, 1969). In brief, rats were anaesthetized using 2% isoflurane. The donor received an intravenous bolus of 500 I.U. heparin. Cardiac arrest was achieved using 20 ml Bretschneider solution (Custodiol, Dr. F. Koehler Chemie, Bensheim, Germany). […] Heart-beating score was assessed directly after transplantation for each animal from score 0 (no palpable contraction) to 4 (strong and regular contraction). Only animals with beating scores of 4 were included into the study.
(§2) Compound I and Compound III were provided by Rigel (South San Francisco, Calif.) and Tacrolimus was provided by Astellas (Munich, Germany). All drugs were administrated orally each in two different concentrations: Compound I LD (15 mg/kg BID; n=6) and HD (60 mg/kg BID; n=6); Compound III LD (5 mg/kg BID; n=6) and HD (20 mg/kg BID; n=6); Tac LD (1 mg/kg QD; n=6) and HD (4 mg/kg QD; n=6). Administration of all drugs was performed every day at the same time points. Tacrolimus was applied only once a day (QD) every 24 hours. During administration of Compound I (BID) and Compound III (BID) a 12 hour pause was kept in between each drug application.
(§3) Lew recipients of heterotopic BN heart transplants were randomly assigned to their group. Animals were either left untreated (groups 1 and 2; see Table 1,5-day study) or received their group specific medication (groups 3-8; see Table 1,5-day study) by oral application. An untreated syngeneic transplant group Lew-Lew was generated as control.
Paraffin-embedded tissue sections were deparaffinized and rehydrated. Sections were incubated with protein blocking solution (ZytoChem Plus (AP) Polymer Kit; Zytomed Systems GmbH, Berlin, Germany) to prevent background staining. After antigen retrieval, specific antibodies against rat CD68 and CD3 (Serotec, Raleigh, N.C.) were applied to identify macrophages and lymphocytes, respectively, and visualized via alkaline phosphatase and new fuchsin substrate reaction (Zytomed System GmbH; Dako, Carpinteria, Calif.). Sections were counterstained by H+E (Waldeck). After overnight incubation with primary antibody solution and subsequent washing, enhancement reagent (ZytoChem) was applied, followed by enzymatic reaction of alkaline phosphatase induced by New Fuchsin Substrate System (Dako).
Inflammatory cell densities within the myocardium were assessed with the Leica QWin software (Leica Microsystems GmbH, Wetzlar, Germany) and expressed as cells/high-power field (HPF). Histological analyses of all stainings were done by a pathologist.

[2] = test system: Lew recipients of heterotopic BN heart transplants; assay: Five-day heart allograft study: donor-specific IgM antibodies by flow cytometry; format: in vivo, rat; conditions: LD and HD groups; five days; p<0.001
Procedure: as §2, §3
Donor splenocytes were isolated and erythrocytes were lysed using the ACK buffer (Lonza, Walkersville, Md.). Sera from recipient rats were decomplemented and equal amounts of sera and splenocyte suspensions (5×10^6 cells/ml) were incubated for 30 minutes at room temperature. IgM antibodies were stained by incubation of the cells with a conjugated mouse antibody specific for the Fc-portion of rat IgM (Monoclonal Anti-rat IGM, Clone RTM-32, Sigma) followed by incubation with a 488-conjugated secondary antibody (Invitrogen). Cells were washed with PBS, fixed with 2% paraformaldehyde (Science Services), and analyzed on a FACSCalibur™ system (BD Biosciences). Fluorescence data were expressed as mean fluorescence intensity (MFI) using Flowjo software (Tree Star, Inc., Ashland, Oreg.).

| Compound | EC50 (Syk; upstream kinase Syk) [nM] | EC50 (A549 epithelial cells; A549, upstream kinases Multiple, read-out: A549 proliferation EC50) [µM] | Insulin HeLa phospho-Akt EC50 (INSR) | CD68+ cell infiltration compared to Tac HD group [1] | CD68+ cells compared to no medication group [1] | CD68+ and CD3+ cell infiltration compared to Tac LD group [1] | donor-specific IgM antibodies (DSA) vs. no medication [2] | EC50 (Syk) [nM] | EC50 (A549 epithelial cells; A549, read-out: A549 proliferation EC50) [µM] |
| --- | --- | --- | --- | --- | --- | --- | --- | --- | --- |
| COc1cc(Nc2ncc(C)c(Nc3ccc4oc(=O)[nH]c4c3)n2)cc(C)c1F [Compound I, 5-(2-(4-fluoro-3-methoxy-5-methylphenylamino)-5-methylpyrimidin-4-ylamino)benzo[d]oxazol-2(3H)-one] | 1440 ± 586 | 1.86 ± 0.251 | Inactive | significantly less | significantly reduced | less CD68+ and CD3+ cell infiltration | significant suppression | – | – |
| COc1cc(Nc2ncc(C)c(Nc3ccc4oc(=O)[nH]c4c3)n2)cc(C)c1C [Compound III, 5-(2-(3-methoxy-4,5-dimethylphenylamino)-5-methylpyrimidin-4-ylamino)benzol[d]oxazol-2-(3H)-one] | – | – | Inactive | significantly less | significantly reduced | less CD68+ and CD3+ cell infiltration | significant suppression | 1280 ± 190 | 5.42 ± 3.04 |
